Patent publication US9873696B2, “Neprilysin inhibitors” (THERAVANCE BIOPHARMA R&D IP, LLC, priority 2010, dated 2018)

These molecules were tested against T1, human NEP (Homo sapiens, UniProt P08473) (assay: In vitro enzyme inhibition assay at human NEP (Assay 1)). Conditions: recombinant enzyme, fluorogenic peptide substrate, 37° C.
T1 construct: purchased R&D Systems, Minneapolis, Minn; 1182-ZN
Format: biochemical
How it was run: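 Recombinant enzyme preincubated with compound 30 min at 37 °C, then 10 μM Mca-D-Arg-Arg-Leu-Dap-(Dnp)-OH added in 50 mM HEPES pH 7.5, 100 mM NaCl, 0.01% Tween-20, 10 μM ZnSO4; stopped after 20 min with acetic acid. Fluorescence read at 320/405 nm; Ki from nonlinear fit of v=v0/[1+(I/K′)], reported as pKi.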

T1 sequence (P08473 whole entry): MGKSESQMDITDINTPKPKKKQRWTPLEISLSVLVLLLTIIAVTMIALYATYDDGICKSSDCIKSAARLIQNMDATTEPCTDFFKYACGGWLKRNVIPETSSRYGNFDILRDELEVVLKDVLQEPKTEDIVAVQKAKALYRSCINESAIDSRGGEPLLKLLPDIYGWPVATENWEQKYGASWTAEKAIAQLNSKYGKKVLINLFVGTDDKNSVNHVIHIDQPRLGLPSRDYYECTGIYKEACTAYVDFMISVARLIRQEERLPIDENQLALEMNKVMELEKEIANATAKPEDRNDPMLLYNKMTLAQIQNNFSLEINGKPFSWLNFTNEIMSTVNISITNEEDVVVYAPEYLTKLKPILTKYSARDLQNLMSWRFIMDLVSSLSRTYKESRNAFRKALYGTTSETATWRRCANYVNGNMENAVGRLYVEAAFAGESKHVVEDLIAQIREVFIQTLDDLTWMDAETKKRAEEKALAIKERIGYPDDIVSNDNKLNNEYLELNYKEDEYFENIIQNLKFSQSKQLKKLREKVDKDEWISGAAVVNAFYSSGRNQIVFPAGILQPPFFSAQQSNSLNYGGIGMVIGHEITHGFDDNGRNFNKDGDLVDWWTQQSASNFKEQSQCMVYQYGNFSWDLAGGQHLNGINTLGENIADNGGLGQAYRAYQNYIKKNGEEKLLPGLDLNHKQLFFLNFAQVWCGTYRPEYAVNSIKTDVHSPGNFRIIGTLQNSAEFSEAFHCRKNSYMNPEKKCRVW

| SMILES | Ki |
| --- | --- |
| CC(C)(C)c1cc(C(=O)NN(Cc2ccc(-c3cc(Cl)ccc3F)cc2)C[C@@H](O)C(=O)O)on1 [Example 8-33, (R)-3-[N′-(3-tert-Butyl-isoxazole-5-carbonyl)-N-(5′-chloro-2′-fluoro-biphenyl-4-ylmethyl)-hydrazino]-2-hydroxy-propionic acid] | 1.26 to 10 nM |
| CC(=O)c1cc(C(=O)NN(Cc2ccc(-c3cc(Cl)ccc3C)cc2)C[C@H](O)C(=O)O)[nH]n1 [Example 8-47, (S)-3-[N′-(5-Acetyl-2H-pyrazole-3-carbonyl)-N-(5′-chloro-2′-methyl-biphenyl-4-ylmethyl)-hydrazino]-2-hydroxy-propionic acid] | 1.26 to 10 nM |
| COc1c(F)c(F)c(Cn2nc(C(=O)NN(Cc3ccc(-c4ccccc4)cc3)C[C@@H](O)C(=O)O)cc2C(=O)O)c(F)c1F [Example 2-18, 5-[N′-Biphenyl-4-ylmethyl-N′-((R)-2-carboxy-2-hydroxyethyl)-hydrazinocarbonyl]-2-(2,3,5,6-tetrafluoro-4-methoxybenzyl)-2H-pyrazole-3-carboxylic acid] | 1.26 to 10 nM |
| O=C(NN(Cc1ccc(-c2cccc(F)c2)cc1)C[C@@H](O)C(=O)O)c1cc(O)no1 [Example 5-1, (R)-3-[N-(3′-Fluoro-biphenyl-4-ylmethyl)-N′-(3-hydroxy-isoxazole-5-carbonyl)-hydrazino]-2-hydroxy-propionic acid] | 1.26 to 10 nM |
| O=C(NN(Cc1ccc(-c2ccccc2)cc1)C[C@@H](O)C(=O)O)c1cc(C(=O)N2CCC2)n[nH]1 [Example 2-8, (R)-3-{N′-[5-(Azetidine-1-carbonyl)-2H-pyrazole-3-carbonyl]-N-biphenyl-4-ylmethylhydrazino}-2-hydroxypropionic acid] | 1.26 to 10 nM |
| O=C(NN(Cc1ccc(-c2cc(Cl)ccc2F)cc1)C[C@@H](O)C(=O)O)c1nn(-c2ccc(F)cc2)c(=O)[nH]1 [Example 8-65, (R)-3-{N-(5′-Chloro-2′-fluoro-biphenyl-4-ylmethyl)-N′-[1-(4-fluoro-phenyl)-5-oxo-4,5-dihydro-1H-[1,2,4]triazole-3-carbonyl]-hydrazino}-2-hydroxy-propionic acid] | 1.26 to 10 nM |
| CC(C)CN(C)C(=O)c1cc(C(=O)NN(Cc2ccc(-c3ccccc3)cc2)C[C@@H](O)C(=O)O)[nH]n1 [Example 2-7, (R)-3-{N-Biphenyl-4-ylmethyl-N′-[5-(isobutylmethylcarbamoyl)-2H-pyrazole-3-carbonyl]hydrazino}-2-hydroxypropionic acid] | 12.6 to 100 nM |
| O=C(NN(Cc1ccc(-c2ccccc2)cc1)C[C@H](O)C(=O)O)c1nnc[nH]1 [Example 2-20, (S)-3-[N-Biphenyl-4-ylmethyl-N′-(4H-[1,2,4]triazole-3-carbonyl)hydrazino]-2-hydroxypropionic acid] | 126 to 1000 nM |
| O=C(NN(Cc1ccc(-c2cc(Cl)ccc2Cl)cc1)C[C@@H](O)C(=O)O)c1cn(O)nn1 [Example 7A, (R)-3-[N-(2′,5′-Dichlorobiphenyl-4-ylmethyl)-N′-(1-hydroxy-H-[1,2,3]triazole-4-carbonyl)-hydrazino]-2-hydroxypropionic Acid] | ≤ 1 nM |
| O=C(O)c1cc(C(=O)NN(Cc2ccc(-c3cccc(Cl)c3)cc2)C[C@@H](O)C(=O)O)nc(O)n1 [Example 4-38, 6-[N′-((R)-2-Carboxy-2-hydroxy-ethyl)-N′-(3′-chlorobiphenyl-4-ylmethyl)-hydrazinocarbonyl]-2-hydroxy-pyrimidine-4-carboxylic acid] | ≤ 1 nM |
| O=C(NN(Cc1ccc(-c2cc(Cl)ccc2O)cc1)C[C@H](O)C(=O)O)c1cc(O)no1 [Example 8-6, (S)-3-[N-(5′-Chloro-2′-hydroxy-biphenyl-4-ylmethyl)-N′-(3-hydroxy-isoxazole-5-carbonyl)-hydrazino]-2-hydroxy-propionic acid] | 1.26 to 10 nM |
| O=C(NN(Cc1ccc(-c2cccc(Cl)c2)cc1)C[C@H](O)C(=O)O)c1cc(O)no1 [Example 3K, (S)-3-[N-(3′-Chloro-biphenyl-4-ylmethyl)-N′-(3-hydroxyisoxazole-5-carbonyl)-hydrazino]-2-hydrox-propionic Acid] | ≤ 1 nM |
| O=C(NN(Cc1ccc(-c2cccc(Cl)c2)cc1)C[C@@H](O)C(=O)O)c1cnc(O)s1 [Example 4-40, (R)-3-[N-(3′-Chlorobiphenyl-4-ylmethyl)-N′-(2-hydroxy-thiazole-5-carbonyl)-hydrazino]-2-hydroxy-propionic acid] | 1.26 to 10 nM |
| O=C(NN(Cc1ccc(-c2cccc(Cl)c2)cc1)C[C@@H](O)C(=O)O)c1cc(-c2ccccc2Cl)no1 [Example 4-29, (R)-3-{N-(3′-Chlorobiphenyl-4-ylmethyl)-N′-[3-(2-chlorophenyl)-isoxazole-5-carbonyl]-hydrazino}-2-hydroxy-propionic acid] | ≤ 1 nM |
| O=C(NN(Cc1ccc(-c2cccc(Cl)c2)cc1Cl)C[C@@H](O)C(=O)O)c1c[nH]nn1 [Example 10-11, (R)-3-[N-(3,3′-Dichloro-biphenyl-4-ylmethyl)-N′-(1H-[1,2,3]triazole-4-carbonyl)-hydrazino]-2-hydroxy-propionic acid] | ≤ 1 nM |
| CCCc1cc(C(=O)NN(Cc2ccc(-c3cc(Cl)ccc3F)cc2)C[C@@H](O)C(=O)O)on1 [Example 8-31, (R)-3-[N-(5′-Chloro-2′-fluoro-biphenyl-4-ylmethyl)-N′-(3-propyl-isoxazole-5-carbonyl)-hydrazino]-2-hydroxy-propionic acid] | ≤ 1 nM |
| NS(=O)(=O)CCNC(=O)c1cc(C(=O)NN(Cc2ccc(-c3ccccc3)cc2)C[C@@H](O)C(=O)O)[nH]n1 [Example 2-3, (R)-3-{N-Biphenyl-4-ylmethyl-N′-[5-(2-sulfamoylethylcarbamoyl)-2H-pyrazole-3-carbonyl]hydrazino}-2-hydroxypropionic acid] | 1.26 to 10 nM |

Other lines, results leading:

| Ki | SMILES |
| --- | --- |
| ≤ 1 nM | CN(C)C(=O)c1cc(C(=O)NN(Cc2ccc(-c3cc(Cl)ccc3F)cc2)C[C@@H](O)C(=O)O)[nH]n1 [Example 8-35, (R)-3-[N-(5′-Chloro-2′-fluoro-biphenyl-4-ylmethyl)-N′-(5-dimethylcarbamoyl-2H-pyrazole-3-carbonyl)-hydrazino]-2-hydroxy-propionic acid] |
| ≤ 1 nM | O=C(NN(Cc1ccc(-c2cc(Cl)ccc2F)cc1)C[C@@H](O)C(=O)O)c1cc(-c2ccccc2F)no1 [Example 8-18, (R)-3-{N-(5′-Chloro-2′-fluoro-biphenyl-4-ylmethyl)-N′-[3-(2-fluoro-phenyl)-isoxazole-5-carbonyl]-hydrazino}-2-hydroxy-propionic acid] |
| ≤ 1 nM | CC(C)CN(C)C(=O)c1cc(C(=O)NN(Cc2ccc(-c3cccc(Cl)c3)cc2)C[C@@H](O)C(=O)O)[nH]n1 [Example 4-16, (R)-3-{N-(3′-Chlorobiphenyl-4-ylmethyl)-N′-[5-(isobutyl-methyl-carbamoyl)-2H-pyrazole-3-carbonyl]-hydrazino}-2-hydroxy-propionic acid] |
| ≤ 1 nM | O=C(NN(Cc1ccc(-c2cc(Cl)ccc2F)cc1)C[C@@H](O)C(=O)O)c1c[nH]c(=O)o1 [Example 8-74, (R)-3-[N-(5′-Chloro-2′-fluoro-biphenyl-4-ylmethyl)-N′-(2-oxo-2,3-dihydro-oxazole-5-carbonyl)-hydrazino]-2-hydroxy-propionic acid] |
| ≤ 1 nM | CC(C)Cc1cc(C(=O)NN(Cc2ccc(-c3cc(Cl)ccc3F)cc2)C[C@@H](O)C(=O)O)on1 [Example 8-30, (R)-3-[N-(5′-Chloro-2′-fluoro-biphenyl-4-ylmethyl)-N′-(3-isobutyl-isoxazole-5-carbonyl)-hydrazino]-2-hydroxy-propionic acid] |
| ≤ 1 nM | Cc1ccc(Cl)cc1-c1ccc(CN(C[C@@H](O)C(=O)O)NC(=O)c2cn(O)nn2)cc1 [Example 8-80, (R)-3-[N-(5′-Chloro-2′-methyl-biphenyl-4-ylmethyl)-N′-(1-hydroxy-1H-[1,2,3]triazole-4-carbonyl)-hydrazino]-2-hydroxy-propionic acid] |
| ≤ 1 nM | CC(=O)c1cc(C(=O)NN(Cc2ccc(-c3cccc(Cl)c3)cc2)C[C@@H](O)C(=O)O)[nH]n1 [Example 4-25, (R)-3-[N′-(5-Acetyl-2H-pyrazole-3-carbonyl)-N-(3′-chlorobiphenyl-4-ylmethyl)-hydrazino]-2-hydroxy-propionic acid] |
| ≤ 1 nM | O=C(NN(Cc1ccc(-c2cc(Cl)ccc2F)cc1)C[C@@H](O)C(=O)O)c1cnc(O)s1 [Example 8-83, (R)-3-[N-(5′-Chloro-2′-fluoro-biphenyl-4-ylmethyl)-N′-(2-hydroxy-thiazole-5-carbonyl)-hydrazino]-2-hydroxy-propionic acid] |
| ≤ 1 nM | O=C(NN(Cc1ccc(-c2cccc(Cl)c2)c(Cl)c1)C[C@@H](O)C(=O)O)c1cc(O)no1 [Example 10-3, (R)-3-[N-(2,3′-Dichloro-biphenyl-4-ylmethyl)-N′-(3-hydroxy-isoxazole-5-carbonyl)-hydrazino]-2-hydroxy-propionic acid] |
| ≤ 1 nM | O=C(NN(Cc1ccc(-c2cc(Cl)ccc2F)cc1)C[C@@H](O)C(=O)O)c1cc(C2CC2)n[nH]1 [Example 8-43, (R)-3-[N-(5′-Chloro-2′-fluoro-biphenyl-4-ylmethyl)-N′-(5-cyclopropyl-2H-pyrazole-3-carbonyl)-hydrazino]-2-hydroxy-propionic acid] |
| ≤ 1 nM | O=C(NN(Cc1ccc(-c2cc(Cl)ccc2F)cc1)C[C@@H](O)C(=O)O)c1cc(-c2cc(Cl)ccc2Cl)n[nH]1 [Example 8-41, (R)-3-{N-(5′-Chloro-2′-fluoro-biphenyl-4-ylmethyl)-N′-[5-(2,5-dichloro-phenyl)-2H-pyrazole-3-carbonyl]-hydrazino}-2-hydroxy-propionic acid] |
| ≤ 1 nM | O=C(NN(Cc1ccc(-c2cc(Cl)ccc2F)cc1)C[C@@H](O)C(=O)O)c1cc(O)no1 [Example 8-8, (R)-3-[N-(5′-Chloro-2′-fluoro-biphenyl-4-ylmethyl)-N′-(3-hydroxy-isoxazole-5-carbonyl)-hydrazino]-2-hydroxy-propionic acid] |
